Laboratory results taken from ChEMBL document CHEMBL1139906, “Structure function analysis of benzalacetone synthase from Rheum palmatum” (Bioorg Med Chem Lett, 2007).
One block for each molecule: values may come before it.

Experiments:
Rheum palmatum = test: Activity of Rheum palmatum benzalacetone synthase S338V mutant
[1] = substrate: CC(C)(COP(=O)(O)OP(=O)(O)OC[C@H]1O[C@@H](n2cnc3c(N)ncnc32)[C@H](O)[C@@H]1OP(=O)(O)O)[C@@H](O)C(=O)NCCC(=O)NCCSC(=O)/C=C/c1ccc(O)cc1; test: Activity of Rheum palmatum benzalacetone synthase

- Km (Rheum palmatum): 9.4 µM
- kcat (Rheum palmatum): 0.053 s⁻¹
Molecule: CC(C)(COP(=O)(O)OP(=O)(O)OC[C@H]1O[C@@H](n2cnc3c(N)ncnc32)[C@H](O)[C@@H]1OP(=O)(O)O)[C@@H](O)C(=O)NCCC(=O)NCCSC(=O)/C=C/c1ccc(O)cc1

B1: Polyketide synthase BAS (Rheum palmatum), Q94FV7 (protein)
chain: MATEEMKKLATVMAIGTANPPNCYYQADFPDFYFRVTNSDHLINLKQKFKRLCENSRIEKRYLHVTEEILKENPNIAAYEATSLNVRHKMQVKGVAELGKEAALKAIKEWGQPKSKITHLIVCCLAGVDMPGADYQLTKLLDLDPSVKRFMFYHLGCYAGGTVLRLAKDIAENNKGARVLIVCSEMTTTCFRGPSETHLDSMIGQAILGDGAAAVIVGADPDLTVERPIFELVSTAQTIVPESHGAIEGHLLESGLSFHLYKTVPTLISNNIKTCLSDAFTPLNISDWNSLFWIAHPGGPAILDQVTAKVGLEKEKLKVTRQVLKDYGNMSSATVFFIMDEMRKKSLENGQATTGEGLEWGVLFGFGPGITVETVVLRSVPVIS
- Km [1]: 10 µM
- kcat [1]: 0.0298 s⁻¹
